Test results as given in paper PMC9962402, “Fast and Simple Liquid Chromatography-Isotope Dilution Tandem Mass Spectrometry Method for Therapeutic Drug Monitoring of Dalbavancin in Long-Term Treatment of Subacute and/or Chronic Infections” (Pharmaceutics, 2023).

Legend:
[1] = Stability of DBV in sample extracts (autosampler, freezer); assay type: physicochemical; details: for Avg Accuracy (Bias%): vs nominal concentration, LC-MS/MS
[2] = Freeze-thaw stability of DBV in plasma samples
Experimental: Stability of DBV was assessed by comparing the nominal concentrations of LQC, MQC and HQC with those observed under two different conditions: • sample extracts kept on board at 10 °C for 24 h and frozen at −80 °C for 24 h; • plasma samples analyzed after three complete freeze and thaw cycles (from −80 °C to 25 °C).
Stability in the above operating conditions was deemed suitable if DBV concentrations were within ±15% of the nominal value.

[3] = human, in vivo
Experimental: Plasma samples (3 μL) were added to 47 μL of ultrapure water to achieve a dilution factor of 17 and then mixed with 150 μL of the IS-methanol solution (1 mg/L DBV-d6). The mixture was vortexed for 15 s and then centrifuged at room temperature at 13,000 rpm for 5 min. Subsequently, 50 µL of the clear supernatant was transferred to an autosampler vial, and a volume of 3 µL was injected into the LC-MS/MS system (Figure 2).
The presented ITD LC-MS/MS method was tested for measuring DBV concentrations in patients receiving DBV for the treatment of long-term subacute or chronic documented Gram-positive infections (namely osteoarticular infections, endocarditis, and endovascular prosthetic infections). In our study, DBV treatment was started according to the internal protocol consisting of two 1500 mg doses one week apart. Requirement for additional doses was assessed by the treating physician after at least four weeks according to the underlying clinical conditions of each patient. […] The number of samples assessed was 520. Samples for Dalbavancin TDM were usually collected at predefined timeframes between 21 and 35 days after first administration. […] Blood samples respected the cold chain delivery and were processed either immediately after delivery or after freezing at −80 °C until analysis, depending on case-by-case.

[4] = human; cited from earlier work

Compound: CN[C@H]1C(=O)N[C@@H]2Cc3ccc(cc3)Oc3cc4cc(c3O[C@@H]3O[C@H](C(=O)O)[C@@H](O)[C@H](O)[C@H]3NC(=O)CCCCCCCCC(C)C)Oc3ccc(cc3Cl)[C@@H](O)[C@@H]3NC(=O)[C@H](NC(=O)[C@@H]4NC(=O)[C@@H](NC2=O)c2cc(cc(O)c2Cl)Oc2cc1ccc2O)c1ccc(O)c(c1)-c1c(O[C@H]2O[C@H](CO)[C@@H](O)[C@H](O)[C@@H]2O)cc(O)cc1[C@@H](C(=O)NCCCN(C)C)NC3=O [DBV, Dalbavancin]
- Avg Accuracy (Bias%) ([1]; extract (MeOH:H2O protein precipitation of plasma) kept in autosampler at 10 °C, post 24 h, Low QC 7 mg/L, acceptance ±15%): 22.1%
- Avg Accuracy (Bias%) ([1]; extract in freezer (−80 °C) post 24 h, High QC 280 mg/L): 12.3%
- Avg Accuracy (Bias%) ([1]; extract in freezer (−80 °C) post 24 h, Low QC 7 mg/L): 16.8%
- Avg Accuracy (Bias%) ([1]; extract in freezer (−80 °C) post 24 h, Medium QC 70 mg/L): 6.7%
- Avg Accuracy (Bias%) ([1]; extract kept in autosampler at 10 °C, post 24 h, High QC 280 mg/L): 14.8%
- Avg Accuracy (Bias%) ([1]; extract kept in autosampler at 10 °C, post 24 h, Medium QC 70 mg/L): 9.4%
- time for which autosampler extracts were stable ([1]; extracts kept at 10 °C): at least 24 h
- change of DBV concentrations after freeze and thaw cycles [2]: decreased
- Avg Accuracy (Bias%) ([2]; human plasma samples, 1 freeze-thaw cycle (−80 °C to 25 °C), Low QC 7 mg/L, vs nominal, LC-MS/MS): 14.8%
- DBV concentration, first quartile [3]: 11 mg/L
- DBV concentration, maximum [3]: 77.0 mg/L
- DBV concentration, minimum [3]: 2.0 mg/L
- DBV concentration, third quartile [3]: 31.8 mg/L
- DBV concentration, median ([3]; 1500 mg): 18 mg/L
- plasma protein binding [4]: very high
